Patent EP4606801A1, “FUSED HETEROCYCLIC COMPOUND AND USE THEREOF” (Chengdu Zenitar Biomedical Technology Co., Ltd., priority 2022, dated 2024)

System: breast cancer MDA-MB-436
Experiment: In-vivo pharmacodynamic study on subcutaneous xenograft tumor model of breast cancer MDA-MB-436
Design: species or system NOD/SCID mice
Settings: for RTV / Tumor volume T/C% / Tumor weight (g) X±SD / Body weight (g) X±SD End / Tumor volume (mm^3) X±SD End: 24 days
Description: Strain: NOD/SCID; Grade: SPF; Source: Beijing Vitron River Bio-technology Co., Ltd.
The cells were washed 3 times with pre-cooled PBS, centrifuged at 300 g for 10 min, collected, re-suspended in PBS, and counted with a blood cell counting chamber, and the cell concentration was adjusted. After cell collection, the cell suspension was pre-cooled on ice. 100 µL of the cell suspension was administered via subcutaneous injection into the dorsal flank of the mice, and the grouped treatment was started when the tumor volume reached 200-300 mm^3.
General observation: Observation of animals: all live experimental animals to be observed; Observation time: twice a day; Observation items: including but not limited to general performance, behavioral status, eyes, mouth, nose and mouth, ears, hair, stool, urine, genitalia and other toxic symptoms; If abnormalities are observed, provide a detailed description.
Animal assay: all viable experimental animals scheduled for assay; Assay time: All animals were weighed before the modeling for test grouping. After modeling, the mice were weighed once every 2 days, and the weight change of the mice was recorded in real time. Effective criteria: tumor volume (TV), relative tumor volume (RTV) and relative tumor growth rate of subcutaneously implanted tumor model. […] The calculation formula of tumor volume (TV) was: TV (mm^3) = a×b2×0.5, where a and b were the long diameter and short diameter, respectively.
The evaluation index for anti-tumor activity was the relative tumor growth rate T/C (%), and the calculation formula was as follows: T/C(%) = TRTV/CRTV × 100%; [formula]
Where, TRTV is relative tumor volume of the treatment group; CRTV is relative tumor volume of the negative control group. Therapeutic evaluation criteria: T/C (%)> 60 is considered ineffective; T/C (%) ≤ 60, and P < 0.05 (through statistical analysis) is considered effective. Measurement of tumor weight and tumor inhibition rate (%): At the end of the treatment period, the animals were euthanize, tumor masses dissected and isolated, tumors weighed, and photographs took. The tumor inhibition rate (%) was calculated by the formula below: [formula]
All raw data within the facility were collected manually according to the experimental scheme and the relevant guidelines of the research institution, or gathered by using a data acquisition system. Manually collected data can be transcribed into software such as Excel for analysis and reporting. The data from each group were quantitative, and the experimental data for each group of animals in the tables were expressed as mean ± standard deviation (Mean ± SD). In the figures, the experimental data ware described as mean ± standard error of the mean (Mean ± SEM). Statistical analysis, including t-tests and survival analysis, was performed by using the software such as EXCEL and GraphPad Prism.
After 24 days of administration, the tumor-bearing mice were anesthetized and euthanized. The tumor tissues were dissected, weighed, and photographed, and the tumor inhibition rate was calculated.

Compound: [2H]C([2H])([2H])C([2H])([2H])c1cc2ncc(CN3CC=C(c4ccc(C(=O)NC)nc4)CC3)cc2[nH]c1=O [Compound 6, 1'-((7-(ethyl-d5)-6-oxo-5,6-dihydro-1,5-naphthyridin-3-yl)methyl)-N-methyl-1',2',3',6'-tetrahy dro-[3,4'-bipyridine]-6-carboxamide]
- RTV (0.03 mg/kg orally once daily): 2.7
- Tumor volume T/C% (0.03 mg/kg orally once daily): 40.8%
- Tumor weight (g) X±SD (0.03 mg/kg orally once daily): 1.09 ± 0.29 g
- Body weight (g) X±SD End (0.03 mg/kg orally once daily): 21.6 ± 0.7 g
- Tumor volume (mm^3) X±SD End (0.03 mg/kg orally once daily): 739.4±308.7 mm^3
- Body weight (g) X±SD Start (0.03 mg/kg orally once daily): 22.6 ± 0.7 g
- Tumor volume (mm^3) X±SD Start (0.03 mg/kg orally once daily): 275.0±68.1 mm^3
- RTV (0.1 mg/kg orally once daily): 0.8
- Tumor volume T/C% (0.1 mg/kg orally once daily): 12.6%
- Tumor weight (g) X±SD (0.1 mg/kg orally once daily): 0.29 ± 0.09 g
- Body weight (g) X±SD End (0.1 mg/kg orally once daily): 21.6 ± 0.7 g
- Tumor volume (mm^3) X±SD End (0.1 mg/kg orally once daily): 228.0±75.9 mm^3
- Body weight (g) X±SD Start (0.1 mg/kg orally once daily): 22.3 ± 1.0 g
- Tumor volume (mm^3) X±SD Start (0.1 mg/kg orally once daily): 274.7±73.8 mm^3
- RTV (0.3 mg/kg orally once daily): 0.3
- Tumor volume T/C% (0.3 mg/kg orally once daily): 3.8%
- Tumor weight (g) X±SD (0.3 mg/kg orally once daily): 0.09 ± 0.08 g
- complete tumor regression (mice out of 6) (0.3 mg/kg orally once daily, at the end of treatment): 2/6
- Body weight (g) X±SD End (0.3 mg/kg orally once daily): 22.0 ± 0.9 g
- Tumor volume (mm^3) X±SD End (0.3 mg/kg orally once daily): 71.0±62.5 mm^3
- Body weight (g) X±SD Start (0.3 mg/kg orally once daily): 22.3 ± 0.8 g
- Tumor volume (mm^3) X±SD Start (0.3 mg/kg orally once daily): 281.9±67.4 mm^3
